Where two headings read alike, the source gives them in different places.
Test: Phase 1 clinical trial, Part I single ascending doses, plasma pharmacokinetics
Assay type: in vivo, human (healthy male volunteers)
Conditions: for Tmax / AUC(0-t) / Cmax / AUC / half-life: male, human, plasma; for AUC(0-t) / Cmax: Day 1, geom. mean; for AUC: Day 1, zero to infinity; for AUC / half-life: geom. mean; for half-life: read-out: t1/2, z (converted)
Protocol: A Phase 1, randomized, double-blind, placebo-controlled clinical trial was performed to assess the safety and pharmacokinetics (PK) of Compound I after single, escalating, and repeated oral doses in health male volunteers.
4-[(7-methoxy-2,3-dihydro-1,4-benzothiazepin-4(5H)yl)methyl]benzoic acid hemi-fumarate (Compound I) was administered in a gastro-resistant tablet according to Example 1. The formulation contained 20 mg, 40 mg, or 200 mg Compound I (based on the mass of 4-[(7-methoxy-2,3-dihydro-1,4-benzothiazepin-4(5H)yl)methyl]benzoic acid). Placebo tablet according to Example 4 was used as comparator.
[…] Forty subjects completed part I: 30 active (6 per cohort) and 10 placebo.
In Part I, blood samples were collected from each participant as follows: at pre-dose, then 0.25, 0.5, 1, 1.5, 2, 3, 4, 5, 6, 8, 10, 12, 16, 24, 36, 48, 60, 72, and 96 hours after dosing.
The area under the plasma concentration-time curve was calculated using a combined linear and logarithmic trapezoidal rule. The interpolation was linear in the constant and ascending parts of the plasma concentration-time profiles. The interpolation was logarithmic in the descending parts.
For Part I, to assess the dose effect on the PK of Compound I, the mean AUClast, and Cmax for each dose were calculated and were plotted by dose.
For each group and treatment, descriptive statistics (N, arithmetic mean, standard deviation, minimum, median, maximum, coefficient of variation, geometric mean, and geometric CV, as appropriate) were calculated for the concentrations and pharmacokinetic parameters of Compound I.
Plasma and muscle samples were analyzed by LC-MS/MS method.

COc1ccc2c(c1)CN(Cc1ccc(C(=O)O)cc1)CCS2.O=C(O)/C=C/C(=O)O [Compound I, 4-[(7-methoxy-2,3-dihydro-1,4-benzothiazepin-4(5H)yl)methyl]benzoic acid hemifumarate]
Tmax (single oral administration at 20 to 400 mg, across doses, read-out: median Tmax): 3 to 4.5 h | AUC(0-t) (single oral dose 40 mg (Treatment A, n = 6)): 68.7 µg·h/mL | Cmax (single oral dose 40 mg): 3940 ng/mL | Tmax (single oral dose 40 mg, Day 1, median, read-out: tmax): 3 h | AUC (single oral dose 40 mg): 71.7 µg·h/mL | half-life (single oral dose 40 mg): 20.9 h | AUC(0-t) (single oral dose 80 mg (Treatment B, n = 6)): 153 µg·h/mL | Cmax (single oral dose 80 mg): 6880 ng/mL | Tmax (single oral dose 80 mg, Day 1, median, read-out: tmax): 3 h | AUC (single oral dose 80 mg): 163 µg·h/mL | half-life (single oral dose 80 mg): 22.7 h | AUC(0-t) (single oral dose 160 mg (Treatment C, n = 6)): 304 µg·h/mL | Cmax (single oral dose 160 mg): 15500 ng/mL | Tmax (single oral dose 160 mg, Day 1, median, read-out: tmax): 3 h | AUC (single oral dose 160 mg): 312 µg·h/mL | half-life (single oral dose 160 mg): 17.5 h | AUC(0-t) (single oral dose 240 mg (Treatment D, n = 6)): 451 µg·h/mL | Cmax (single oral dose 240 mg): 24500 ng/mL | Tmax (single oral dose 240 mg, Day 1, median, read-out: tmax): 4.5 h | AUC (single oral dose 240 mg): 464 µg·h/mL | half-life (single oral dose 240 mg): 17.7 h | AUC(0-t) (single oral dose 400 mg (Treatment E, n = 6)): 656 µg·h/mL | Cmax (single oral dose 400 mg): 35100 ng/mL | Tmax (single oral dose 400 mg, Day 1, median, read-out: tmax): 3.5 h | AUC (single oral dose 400 mg): 708 µg·h/mL | half-life (single oral dose 400 mg): 18.7 h | Tlag (single oral administration at 20 to 400 mg): less than 2 hours | Absorption (single oral administration of 20, 40, 80, 160, 240, and 400 mg, after a lag time): rapid absorption was observed | Non-linearity with the dose (single oral doses): No evidence of non-linearity with the dose was observed | Dose proportionality with regard to AUClast and Cmax (single oral doses, graphical inspections): dose proportionality

Reference: patent US12161650B2, “Pharmaceutical compositions comprising a ryanodine receptor modulator and uses thereof” (priority 2021, dated 2024)
